Patent US20140045823A1 (Neurocrine Biosciences, Inc., priority 2012, published 2014)

molecular target: T1, human GPR119 (Homo sapiens, UniProt Q8TDV5); experiment: AlphaScreen cAMP assay in MIN6 cells stably transfected with human GPR119; format: cell-based; details: Min-6/hGPR119 cells, 45 min at room temperature
T1 construct: expression vector for human GPR119 cDNA (Acc. No. NP_848566); expressed in transfected cells; Min-6/hGPR119
T1 sequence (Q8TDV5 1-335): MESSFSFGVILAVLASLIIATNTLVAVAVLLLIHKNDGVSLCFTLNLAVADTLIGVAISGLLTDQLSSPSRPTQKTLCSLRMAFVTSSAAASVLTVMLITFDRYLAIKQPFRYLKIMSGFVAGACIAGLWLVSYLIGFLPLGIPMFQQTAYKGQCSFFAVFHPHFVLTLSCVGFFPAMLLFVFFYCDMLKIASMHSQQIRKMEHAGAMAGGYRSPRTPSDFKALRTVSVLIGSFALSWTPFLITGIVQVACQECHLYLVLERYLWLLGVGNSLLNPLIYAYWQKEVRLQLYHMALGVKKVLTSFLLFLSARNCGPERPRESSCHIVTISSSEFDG
Description: The compounds of formula I according to the invention modulate the activity of the G-protein-coupled receptor GPR119. The effect of the compounds on the activation of GPR119 and on the stimulation of intracellular cAMP concentration is determined using the AlphaScreen cAMP Assay Kit (Cat. No. #6760625R) made by PerkinElmer.
MIN6 cells [Miyazaki J et al. Endocrinology. 1990 July; 127(1):126-32] are stably transfected with an expression vector for human GPR119 cDNA (Acc. No. NP_848566). Min-6/hGPR119 cells are cultured in DMEM, 10% FBS, 50 μM β-mercaptoethanol, 0.3 mg/mL Geniticin, 2 mM GlutaMAX at 37° C. 5% CO2. For the assay, the cells are seeded in Optiplates (white, 384-well, 160 W—barcoded, TC, sterile with lid, Cat. No. #6007688 (Perkin Elmer); 10000 cells/well; 50 μl). The plates covered with lids are then incubated for 24 hours at 37° C./5% CO2. After the medium is aspirated from the wells completely, 10 μl of the test compound are added, the compounds are diluted using stimulating buffer (140 mM NaCl, 3.6 mM KCl, 0.5 mM NaH2PO4, 0.5 mM MgSO4, 1.5 mM CaCl2, 10 mM Hepes, 5 mM NaHCO3; pH 7.4. 0.5 mM IBMX and 0.1% BSA, the final DMSO concentration is 1%). After 45 minutes incubation at room temperature (approx. 20° C.), the cAMP concentrations are determined using the AlphaScreen cAMP Assay Kit (Cat. No. #6760625R from PerkinElmer).

EC50 | SMILES
0.007 µM | CC(C)(C)OC(=O)N1CCC(N(C(=O)c2cc(-c3ccc(C#N)c(F)c3)on2)C2CC2)CC1 [Example 40, 4-{[5-(4-Cyano-3-fluoro-phenyl)-isoxazole-3-carbonyl]-cyclopropyl-amino}-piperidine-1-carboxylic acid tert-butyl ester]
0.011 µM | CC(C)(C)OC(=O)N1CCC(N(C(=O)c2cc(-c3ccc(C#N)cc3)no2)C2CC2)CC1 [Example 41, 4-{[3-(4-Cyano-phenyl)-isoxazole-5-carbonyl]-cyclopropyl-amino}-piperidine-1-carboxylic acid tert-butyl ester]
0.002 µM | CC(C)(C)OC(=O)N1CCC(N(C(=O)c2cc(-c3ccc(C#N)cc3F)no2)C2CC2)CC1 [Example 42, 4-{[3-(4-Cyano-2-fluoro-phenyl)-isoxazole-5-carbonyl]-cyclopropyl-amino}-piperidine-1-carboxylic acid tert-butyl ester]
0.014 µM | CC(C)(C)OC(=O)N1CCC(N(C(=O)c2cc(-c3ccc(C#N)c(F)c3)no2)C2CC2)CC1 [Example 43, 4-{[3-(4-Cyano-3-fluoro-phenyl)-isoxazole-5-carbonyl]-cyclopropyl-amino}-piperidine-1-carboxylic acid tert-butyl ester]
0.047 µM | Cc1c(C(=O)N(C2CC2)C2CCN(C(=O)OC(C)(C)C)CC2)noc1-c1ccc(C#N)cc1 [Example 44, 4-{[5-(4-Cyano-phenyl)-4-methyl-isoxazole-3-carbonyl]-cyclopropyl-amino}-piperidine-1-carboxylic acid tert-butyl ester]
0.025 µM | Cc1c(C(=O)N(C2CC2)C2CCN(C(=O)OC(C)(C)C)CC2)noc1-c1ccc(C#N)c(F)c1 [Example 45, 4-{[5-(4-Cyano-3-fluoro-phenyl)-4-methyl-isoxazole-3-carbonyl]-cyclopropyl-amino}-piperidine-1-carboxylic acid tert-butyl ester]
0.003 µM | Cc1c(C(=O)N(C2CC2)C2CCN(C(=O)OC(C)(C)C)CC2)noc1-c1ccc(C#N)cc1F [Example 46, 4-{[5-(4-Cyano-2-fluoro-phenyl)-4-methyl-isoxazole-3-carbonyl]-cyclopropyl-amino}-piperidine-1-carboxylic acid tert-butyl ester]
1.86 µM | CC(C)(C)OC(=O)N1CCC(N(C(=O)c2csc(-c3ccc(C#N)cc3)n2)C2CC2)CC1 [Example 47, 4-{[2-(4-Cyano-phenyl)-thiazole-4-carbonyl]-cyclopropyl-amino}-piperidine-1-carboxylic acid tert-butyl ester]
1.34 µM | Cc1nc(-c2ccc(C#N)cc2F)sc1C(=O)N(C1CC1)C1CCN(C(=O)OC(C)(C)C)CC1 [Example 48, 4-{[2-(4-Cyano-2-fluoro-phenyl)-4-methyl-thiazole-5-carbonyl]-cyclopropyl-amino}-piperidine-1-carboxylic acid tert-butyl ester]
0.149 µM | CC(C)(C)OC(=O)N1CCC(N(C(=O)c2ncn(-c3ccc(C#N)cc3F)n2)C2CC2)CC1 [Example 49, 4-{[1-(4-Cyano-2-fluoro-phenyl)-1H-[1,2,4]triazole-3-carbonyl]-cyclopropyl-amino}-piperidine-1-carboxylic acid tert-butyl ester]
0.505 µM | CC(C)(C)OC(=O)N1CCC(N(C(=O)c2ncn(-c3ccc(C#N)cc3)n2)C2CC2)CC1 [Example 50, 4-{[1-(4-Cyano-phenyl)-1H-[1,2,4]triazole-3-carbonyl]-cyclopropyl-amino}-piperidine-1-carboxylic acid tert-butyl ester]
0.14 µM | CC(C)OC(=O)N1CCC(N(C(=O)c2cnc(-n3ccnc3)nc2)C2CC2)CC1 [Example 51, 4-[Cyclopropyl-(2-imidazol-1-yl-pyrimidine-5-carbonyl)-amino]-piperidine-1-carboxylic acid isopropyl ester]
0.211 µM | CCc1nccn1-c1ncc(C(=O)N(C2CC2)C2CCN(C(=O)OC(C)C)CC2)cn1 [Example 52, 4-{Cyclopropyl-[2-(2-ethyl-imidazol-1-yl)-pyrimidine-5-carbonyl]-amino}-piperidine-1-carboxylic acid isopropyl ester]
0.12 µM | CC(C)OC(=O)N1CCC(N(C(=O)c2cnc(-c3ccc(S(C)(=O)=O)cc3)nc2)C2CC2)CC1 [Example 53, 4-{Cyclopropyl-[2-(4-methanesulfonyl-phenyl)-pyrimidine-5-carbonyl]-amino}-piperidine-1-carboxylic acid isopropyl ester]
0.106 µM | Cc1nccn1-c1ncc(C(=O)N(C2CC2)C2CCN(C(=O)OC3(C)CC3)CC2)cn1 [Example 55, 4-{Cyclopropyl-[2-(2-methyl-imidazol-1-yl)-pyrimidine-5-carbonyl]-amino}-piperidine-1-carboxylic acid 1-methyl-cyclopropyl ester]
2.78 µM | CC(C)(C)OC(=O)N1CCC(N(C(=O)c2cnc(-n3cccn3)nc2)C2CC2)CC1 [Example 56, 4-[Cyclopropyl-(2-pyrazol-1-yl-pyrimidine-5-carbonyl)-amino]-piperidine-1-carboxylic acid tert-butyl ester]
3.75 µM | Cc1cc(C)n(-c2ncc(C(=O)N(C3CC3)C3CCN(C(=O)OC(C)(C)C)CC3)cn2)n1 [Example 57, 4-{Cyclopropyl-[2-(3,5-dimethyl-pyrazol-1-yl)-pyrimidine-5-carbonyl]-amino}-piperidine-1-carboxylic acid tert-butyl ester]
2.21 µM | CC(C)(C)OC(=O)N1CCC(N(C(=O)c2cnc(-n3cc(CCO)cn3)nc2)C2CC2)CC1 [Example 58, 4-(Cyclopropyl-{2-[4-(2-hydroxy-ethyl)-pyrazol-1-yl]-pyrimidine-5-carbonyl}-amino)-piperidine-1-carboxylic acid tert-butyl ester]
0.167 µM | CCOc1ccc(-c2ncc(C(=O)N(C3CC3)C3CCN(C(=O)OC(C)C)CC3)cn2)cn1 [Example 59, 4-{Cyclopropyl-[2-(6-ethoxy-pyridin-3-yl)-pyrimidine-5-carbonyl]-amino}-piperidine-1-carboxylic acid isopropyl ester]
0.076 µM | CC(C)OC(=O)N1CCC(N(C(=O)c2cnc(-c3ccc(CC#N)cc3)nc2)C2CC2)CC1 [Example 60, 4-{[2-(4-Cyanomethyl-phenyl)-pyrimidine-5-carbonyl]-cyclopropyl-amino}-piperidine-1-carboxylic acid isopropyl ester]
0.013 µM | CC(C)OC(=O)N1CCC(N(C(=O)c2cnc(-c3ccc(C#N)c(F)c3)nc2)C2CC2)CC1 [Example 61, 4-{[2-(4-Cyano-3-fluoro-phenyl)-pyrimidine-5-carbonyl]-cyclopropyl-amino}-piperidine-1-carboxylic acid isopropyl ester]
0.786 µM | CC(C)(C)OC(=O)N1CCC(N(C(=O)c2ccc(-c3cccc([N+](=O)[O-])c3)o2)C2CC2)CC1 [Example 62, 4-{Cyclopropyl-[5-(3-nitro-phenyl)-furan-2-carbonyl]-amino}-piperidine-1-carboxylic acid tert-butyl ester]
0.042 µM | CC(C)(C)OC(=O)N1CCC(N(C(=O)c2cnc(-c3ccncc3)nc2)C2CC2)CC1 [Example 63, 4-[Cyclopropyl-(2-pyridin-4-yl-pyrimidine-5-carbonyl)-amino]-piperidine-1-carboxylic acid tert-butyl ester]
0.934 µM | CC(C)(C)OC(=O)N1CCC(N(C(=O)c2cc(-c3cccc([N+](=O)[O-])c3)[nH]n2)C2CC2)CC1 [Example 64, 4-{Cyclopropyl-[5-(3-nitro-phenyl)-1H-pyrazole-3-carbonyl]-amino}-piperidine-1-carboxylic acid tert-butyl ester]
1.17 µM | CC(C)(C)OC(=O)N1CCC(N(C(=O)c2cc(-c3ccc([N+](=O)[O-])cc3)[nH]n2)C2CC2)CC1 [Example 65, 4-{Cyclopropyl-[5-(4-nitro-phenyl)-1H-pyrazole-3-carbonyl]-amino}-piperidine-1-carboxylic acid tert-butyl ester]
0.636 µM | CC(C)(C)OC(=O)N1CCC(N(C(=O)c2ncc(-c3ccc(C#N)c(F)c3)cn2)C2CC2)CC1 [Example 66, 4-{[5-(4-Cyano-3-fluoro-phenyl)-pyrimidine-2-carbonyl]-cyclopropyl-amino}-piperidine-1-carboxylic acid tert-butyl ester]

SMILES | EC50
Cc1nccn1-c1ncc(C(=O)N(C2CC2)C2CCN(C(=O)OC(C)C)CC2)cn1 [Example 54, 4-{Cyclopropyl-[2-(2-methyl-imidazol-1-yl)-pyrimidine-5-carbonyl]-amino}-piperidine-1-carboxylic acid isopropyl ester] | 0.129 µM
